Calls of active or inactive are those of the source. No cut-off for these calls is given here.
Legend:
[1] = AUClast in Sprague-Dawley rat plasma at 1 umol/kg, it by HPLC-MS/MS method; type: ADME, cell-free; conditions: inhaled or intranasal
[2] = system: Rattus norvegicus; experiment: Antiinflammatory activity in LPS-induced Sprague-Dawley rat neutrophilic lung inflammation model assessed as inhibition of neutrophilic infiltration in bronchoalveolar lavage at 0.3 mg/kg, it preincubated for 1 hr followed by LPS challenge measured after 4 hrs relative to control; type: functional
[3] = system: Rattus norvegicus; experiment: Antiinflammatory activity in LPS-induced Sprague-Dawley rat neutrophilic lung inflammation model assessed as inhibition of neutrophilic infiltration in bronchoalveolar lavage at 0.1 mg/kg, it preincubated for 1 hr followed by LPS challenge measured after 4 hrs relative to control; type: functional
[4] = MRTlast in Sprague-Dawley rat plasma at 1 umol/kg, it by HPLC-MS/MS method; type: ADME, cell-free; conditions: inhaled or intranasal
[5] = system: Rattus norvegicus; experiment: Antiinflammatory activity in LPS-induced Sprague-Dawley rat neutrophilic lung inflammation model assessed as inhibition of neutrophilic infiltration in bronchoalveolar lavage at 3 mg/kg, it preincubated for 1 hr followed by LPS challenge measured after 4 hrs relative to control; type: functional
[6] = organism: Rattus norvegicus; experiment: Antiinflammatory activity in LPS-induced Sprague-Dawley rat neutrophilic lung inflammation model assessed as inhibition of neutrophilic infiltration in bronchoalveolar lavage at ID80, it preincubated for 24 hrs followed by LPS challenge measured after 4 hrs relative to control; type: functional
[7] = Cmax in Sprague-Dawley rat plasma at 1 umol/kg, it by HPLC-MS/MS method; type: ADME, cell-free; design: dose 1 umol/kg; conditions: inhaled or intranasal
[8] = MRTlast in Sprague-Dawley rat lung at 1 umol/kg, it by HPLC-MS/MS method; type: ADME, tissue-based; conditions: inhaled or intranasal
[9] = Cmax in Sprague-Dawley rat lung at 1 umol/kg, it by HPLC-MS/MS method; type: ADME, tissue-based; design: dose 1 umol/kg; conditions: in vivo, inhaled_or_intranasal
[10] = system: Rattus norvegicus; experiment: Antiinflammatory activity in it dosed LPS-induced Sprague-Dawley rat neutrophilic lung inflammation model assessed as inhibition of neutrophilic infiltration in bronchoalveolar lavage preincubated for 1 hr followed by LPS challenge measured after 4 hrs; type: functional; conditions: read-out: ID50 (the source's name)
[11] = system: RAW264.7; experiment: cells; conditions: Mus musculus
Description: Antiinflammatory activity in mouse RAW264.7 cells assessed as inhibition of LPS-induced nitric oxide release preincubated for 15 mins followed by LPS challenge measured after 18 hrs by Griess assay

[12] = system: Rattus norvegicus; experiment: Antiinflammatory activity in LPS-induced Sprague-Dawley rat neutrophilic lung inflammation model assessed as inhibition of neutrophilic infiltration in bronchoalveolar lavage at 1 mg/kg, it preincubated for 1 hr followed by LPS challenge measured after 4 hrs relative to control; type: functional
[13] = AUClast in Sprague-Dawley rat lung at 1 umol/kg, it by HPLC-MS/MS method; type: ADME, tissue-based; conditions: in vivo, inhaled_or_intranasal
[14] = physchem
Description: Dissociation constant, pKa of the compound

[15] = molecular target: T1, Glucocorticoid receptor (Homo sapiens, UniProt P04150)
T1 sequence (P04150 whole entry): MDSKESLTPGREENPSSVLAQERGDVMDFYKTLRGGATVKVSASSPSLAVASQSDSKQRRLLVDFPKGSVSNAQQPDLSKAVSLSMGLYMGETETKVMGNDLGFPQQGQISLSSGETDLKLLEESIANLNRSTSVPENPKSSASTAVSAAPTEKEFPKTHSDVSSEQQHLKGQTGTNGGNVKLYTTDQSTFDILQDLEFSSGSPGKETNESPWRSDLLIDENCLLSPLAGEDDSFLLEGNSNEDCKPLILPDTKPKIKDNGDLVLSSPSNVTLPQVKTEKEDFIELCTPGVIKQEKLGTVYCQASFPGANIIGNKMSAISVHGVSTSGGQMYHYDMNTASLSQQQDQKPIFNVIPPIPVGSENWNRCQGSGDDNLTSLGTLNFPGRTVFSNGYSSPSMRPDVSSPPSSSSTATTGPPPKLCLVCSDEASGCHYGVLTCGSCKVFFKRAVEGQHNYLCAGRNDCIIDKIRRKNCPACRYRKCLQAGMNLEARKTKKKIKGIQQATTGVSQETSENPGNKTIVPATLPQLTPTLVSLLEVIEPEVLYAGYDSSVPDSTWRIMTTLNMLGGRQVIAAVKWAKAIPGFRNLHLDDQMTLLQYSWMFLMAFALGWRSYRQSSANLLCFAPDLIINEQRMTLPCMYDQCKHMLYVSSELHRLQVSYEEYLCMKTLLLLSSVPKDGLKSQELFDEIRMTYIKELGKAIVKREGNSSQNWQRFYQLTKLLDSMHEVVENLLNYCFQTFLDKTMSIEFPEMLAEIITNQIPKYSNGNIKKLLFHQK
Description: Induction of nuclear translocation of human recombinant ProLabel-tagged glucocorticoid receptor expressed in CHO-K1 cells after 3 hrs by luminescence method

[16] = molecular target: T2, Mineralocorticoid receptor (Homo sapiens, UniProt P08235)
T2 sequence (P08235 whole entry): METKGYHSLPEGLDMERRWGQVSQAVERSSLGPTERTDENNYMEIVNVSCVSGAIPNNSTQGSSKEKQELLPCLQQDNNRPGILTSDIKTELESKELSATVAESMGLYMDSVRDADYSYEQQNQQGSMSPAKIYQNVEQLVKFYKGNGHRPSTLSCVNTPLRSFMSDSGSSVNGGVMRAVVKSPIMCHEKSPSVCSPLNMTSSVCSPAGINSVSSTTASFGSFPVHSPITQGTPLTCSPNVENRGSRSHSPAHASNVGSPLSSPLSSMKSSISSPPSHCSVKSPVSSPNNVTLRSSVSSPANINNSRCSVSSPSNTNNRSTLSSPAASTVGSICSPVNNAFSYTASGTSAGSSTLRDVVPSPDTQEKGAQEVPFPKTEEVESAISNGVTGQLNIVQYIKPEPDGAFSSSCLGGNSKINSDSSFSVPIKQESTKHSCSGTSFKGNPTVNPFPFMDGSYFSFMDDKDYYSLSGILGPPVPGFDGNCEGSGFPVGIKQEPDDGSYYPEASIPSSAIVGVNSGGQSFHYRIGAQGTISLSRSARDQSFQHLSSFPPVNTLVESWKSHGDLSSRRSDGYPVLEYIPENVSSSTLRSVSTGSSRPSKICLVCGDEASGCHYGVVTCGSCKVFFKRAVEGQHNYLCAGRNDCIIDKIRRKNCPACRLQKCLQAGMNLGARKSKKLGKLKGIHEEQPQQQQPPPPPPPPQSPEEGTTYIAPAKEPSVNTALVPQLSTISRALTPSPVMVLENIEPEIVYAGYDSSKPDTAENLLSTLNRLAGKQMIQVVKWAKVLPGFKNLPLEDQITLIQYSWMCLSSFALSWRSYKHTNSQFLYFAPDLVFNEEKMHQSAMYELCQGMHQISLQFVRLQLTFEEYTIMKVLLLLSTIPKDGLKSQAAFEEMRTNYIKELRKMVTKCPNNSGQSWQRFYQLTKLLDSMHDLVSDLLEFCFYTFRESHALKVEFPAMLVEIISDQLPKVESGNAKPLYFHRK
Description: Induction of nuclear translocation of human recombinant ProLabel-tagged mineralocorticoid receptor expressed in CHO-K1 cells after 3 hrs by luminescence method

[17] = system: Rattus norvegicus; experiment: Antiinflammatory activity in LPS-induced Sprague-Dawley rat neutrophilic lung inflammation model assessed as inhibition of neutrophilic infiltration in bronchoalveolar lavage at 0.03 mg/kg, it preincubated for 1 hr followed by LPS challenge measured after 4 hrs relative to control; type: functional
[18] = molecular target: T1, Glucocorticoid receptor; experiment: biochemical
Description: Displacement of [3H]dexamethasone from human recombinant glucocorticoid receptor expressed in insect cells after 24 hrs by scintillation proximity assay

[19] = molecular target: T3, Glucocorticoid receptor (Homo sapiens) (UniProt P04150); experiment: Displacement of [3H]dexamethasone from human recombinant glucocorticoid receptor expressed in insect cells at 1000 nM after 24 hrs by scintillation proximity assay relative to control
T3 sequence (whole entry): T1 sequence (P04150 whole entry)

Compound | AUC(0-t) [1] | inhibition in vivo at 0.3 mg/kg [2] | inhibition in vivo at 0.1 mg/kg [3] | MRT last [4] | inhibition in vivo at 3 mg/kg [5] | inhibition [6] | Cmax [7] | MRT last [8] | Cmax [9] | ED50 [10] | IC50 [11] | inhibition in vivo at 1 mg/kg [12] | AUClast [13] | pKa [14] | EC50 [15] | inhibition (INH) [6] | EC50 [16] | inhibition in vivo at 0.03 mg/kg [17] | Ki [18] | inhibition [19]
CCCC1O[C@@H]2C[C@H]3[C@@H]4CCC5=CC(=O)C=C[C@]5(C)[C@H]4[C@@H](O)C[C@]3(C)[C@]2(C(=O)CO)O1 (stereo not given in full) [BUDESONIDE] | 11.6 µM·h | 45% | 29% | 1.2 h | 84% | inactive | 127 nM | 0.71 h | 18.67 nmol/g | 0.34 µmol/kg | 0.82 nM | 73% | 110.03 nmol·h/g | – | – | – | – | – | – | –
C[C@]12C=CC(=O)C=C1[C@@H](F)C[C@H]1[C@@H]3C[C@H]4CN(Cc5cccc(Cl)c5)C[C@@]4(C(=O)CO)[C@@]3(C)C[C@H](O)[C@@]12F | 0.118 µM·h | 64% | 56% | 1.4 h | – | – | 110 nM | 16.7 h | 64.26 nmol/g | 0.097 µmol/kg | 0.08 nM | 92% | 871.2 nmol·h/g | 6.64 | 1.8 nM | >80% | 2.5 nM | 47% | 0.76 nM | –
C[C@@H]1C[C@H]2[C@@H]3C[C@H](F)C4=CC(=O)C=C[C@]4(C)[C@@]3(F)[C@@H](O)C[C@]2(C)[C@@]1(OC(=O)c1ccco1)C(=O)SCF [FLUTICASONE FUROATE] | 0.05 µM·h | – | – | 1.4 h | – | – | 45 nM | 9.5 h | 77.1 nmol/g | – | 0.1 nM | – | 1049 nmol·h/g | – | – | >80% | – | – | – | –
C[C@]12C=CC(=O)C=C1[C@@H](F)C[C@H]1[C@@H]3C[C@H]4CNC[C@@]4(C(=O)CO)[C@@]3(C)C[C@H](O)[C@@]12F | – | – | – | – | – | – | – | – | – | – | – | – | – | 8.82 | – | – | – | – | – | 40%

Reference: ChEMBL document CHEMBL4184331 (J Med Chem, 2018)
